The test has as its target T1, ERAP1 (Homo sapiens, UniProt Q9NZ08).
T1 construct: Purified ERAP1(37-941)-10His (ERAP1)
The experiment in a line: ERAP1 mediated hydrolysis of an amide substrate measured in a biochemical system (10-mer inhibition assay). The following applies: purified ERAP1(37-941)-10His; 10-mer substrate; 23° C. for 1 h; excitation 279 nm, emission 355 nm; read-out: IC50 vs Decapeptide WRVYEKC(Dnp)ALK-acid (where Dnp is Dinitrophenyl maleimide) (10-mer). Here is the method:
Biological Assay 1: ERAP1 Mediated Hydrolysis of an Amide Substrate Measured in a Biochemical System
• 1× Assay buffer (AB): 25 mM Bis-tris propane, 0.05% w/v • Hydroxypropylmethylcellulose pH 7.75 made with Optima grade water • Decapeptide WRVYEKC(Dnp)ALK-acid (where Dnp is Dinitrophenyl maleimide) (10-mer) • L-Leucine 7-amido-4-methylcoumarin (L-AMC) • Purified ERAP1(37-941)-10His (ERAP1) Assay Procedure:
12.5 μL ERAP1 enzyme in 1×AB was combined with 250 nL test compound in DMSO. 12.5 μL of either 240 μM L-AMC in 1×AB or 100 μM 10-mer in 1×AB was added to the reaction and incubated at 23° C. for 1 h. For detection, plates were read at excitation 365 nm and emission 442 nm (L-AMC) or excitation 279 nm and emission 355 nm (10-mer). Compound IC50 was determined using a 4-parameter equation.
T1 sequence (Q9NZ08 37-941): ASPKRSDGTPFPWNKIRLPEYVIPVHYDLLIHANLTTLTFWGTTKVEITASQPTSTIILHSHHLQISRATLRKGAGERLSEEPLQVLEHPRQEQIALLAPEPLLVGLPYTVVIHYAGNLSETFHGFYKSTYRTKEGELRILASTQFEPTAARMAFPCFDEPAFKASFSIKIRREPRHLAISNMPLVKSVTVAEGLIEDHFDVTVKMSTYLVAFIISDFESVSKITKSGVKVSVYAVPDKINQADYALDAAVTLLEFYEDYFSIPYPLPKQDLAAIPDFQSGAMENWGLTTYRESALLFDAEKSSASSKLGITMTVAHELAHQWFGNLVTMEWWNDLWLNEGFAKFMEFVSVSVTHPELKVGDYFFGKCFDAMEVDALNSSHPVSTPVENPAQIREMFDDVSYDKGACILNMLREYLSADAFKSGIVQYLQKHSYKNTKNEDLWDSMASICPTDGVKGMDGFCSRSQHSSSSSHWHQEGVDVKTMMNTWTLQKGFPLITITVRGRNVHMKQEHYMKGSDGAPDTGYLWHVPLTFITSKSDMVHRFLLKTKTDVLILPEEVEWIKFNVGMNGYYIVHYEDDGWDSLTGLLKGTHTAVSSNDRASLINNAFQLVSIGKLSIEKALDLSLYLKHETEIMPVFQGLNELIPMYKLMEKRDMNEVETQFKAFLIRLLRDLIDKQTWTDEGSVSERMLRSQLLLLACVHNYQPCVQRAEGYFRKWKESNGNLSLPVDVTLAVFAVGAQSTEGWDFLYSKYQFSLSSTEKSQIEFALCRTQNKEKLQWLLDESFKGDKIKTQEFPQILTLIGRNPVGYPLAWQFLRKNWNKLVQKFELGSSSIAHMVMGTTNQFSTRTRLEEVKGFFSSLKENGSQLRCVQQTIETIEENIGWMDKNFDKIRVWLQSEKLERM
The IC50 is the concentration that gives 50% inhibition. With `O=C(O)c1ccc(C2CC2)c(S(=O)(=O)Nc2cc(-c3ccns3)c(Cl)cc2OC2CCC2)c1` [Example 51, 3-(N-(4-chloro-2-cyclobutoxy-5-(isothiazol-5-yl)phenyl)sulfamoyl)-4-cyclopropylbenzoic acid], the IC50 was below 1 nM.

Regarding `C#CC1CCCC1Oc1cc(Cl)c(C#N)cc1NS(=O)(=O)c1cc(C(=O)O)ccc1C1CC1` (racemic) [Example 84, 3-(N-(4-chloro-5-cyano-2-((trans-2-ethynylcyclopentyl)oxy)phenyl)sulfamoyl)-4-cyclopropylbenzoic acid], the IC50 is below 1 nM.

For the molecule `CC(Oc1cc(Cl)c(C#N)cc1NS(=O)(=O)c1cc(C(=O)O)ccc1C1CC1)C1COC1` (stereo not drawn) [Example 45, 3-(N-(4-chloro-5-cyano-2-(1-(oxetan-3-yl)ethoxy)phenyl)sulfamoyl)-4-cyclopropylbenzoic acid], the IC50 is 1 to 5 nM.

Consider `N#Cc1cc(NS(=O)(=O)c2cc(C(=O)O)ccc2C2CC2)c(O[C@@H]2CCC[C@@H]2F)cc1Cl` [Example 73, 3-(N-(4-chloro-5-cyano-2-(((1R,2S)-2-fluorocyclopentyl)oxy)phenyl)sulfamoyl)-4-cyclopropylbenzoic acid], for which the IC50 was below 1 nM.

As to `N#Cc1cc(NS(=O)(=O)c2cc(C(=O)O)ccc2C2CC2)c(OCC2(F)CCC2)cc1Cl` [Example 58, 3-(N-(4-chloro-5-cyano-2-((1-fluorocyclobutyl)methoxy)phenyl)sulfamoyl)-4-cyclopropylbenzoic acid], the IC50 is below 1 nM.

As to `N#Cc1cc(F)c(OC2CCCC2)c(NS(=O)(=O)c2cc(C(=O)O)ccc2C2CC2)c1` [Example 14, 3-(N-(5-cyano-2-(cyclopentyloxy)−3-fluorophenyl)sulfamoyl)-4-cyclopropylbenzoic acid], the IC50 was above 5 nM.

On to `N#Cc1cc(NS(=O)(=O)c2cc(C(=O)O)ccc2C2CC2)c(OC2CCC2C2CC2)cc1Cl` (single isomer, unassigned) [Example 132, 3-(N-(4-chloro-5-cyano-2-(2-cyclopropylcyclobutoxy)phenyl)sulfamoyl)-4-cyclopropylbenzoic acid], for which the IC50 was 1 to 5 nM.

Turning to `N#Cc1cc(NS(=O)(=O)c2cc(C(=O)O)ccc2C2CC2)c(OC2CCCC2O)cc1Cl` (racemic) [Example 98, 3-(N-(4-chloro-5-cyano-2-((cis-2-hydroxycyclopentyl)oxy)phenyl)sulfamoyl)-4-cyclopropylbenzoic acid], the IC50 is below 1 nM.

Turning to `C#CC1(Oc2cc(Cl)c(C#N)cc2NS(=O)(=O)c2cc(C(=O)O)ccc2C2CC2)CCC1` [Example 54, 3-(N-(4-chloro-5-cyano-2-(1-ethynylcyclobutoxy)phenyl)sulfamoyl)-4-cyclopropylbenzoic acid], the IC50 was in the range of 1 to 5 nM.

For the molecule `Cc1oncc1-c1cc(NS(=O)(=O)c2cc(C(=O)O)ccc2C2CC2)c(OC2CCCC2)cc1Cl` [Example 25, 3-(N-(4-chloro-2-(cyclopentyloxy)−5-(5-methylisoxazol-4-yl)phenyl)sulfamoyl)-4-cyclopropylbenzoic acid], the IC50 is below 1 nM.

Regarding `CC1(C)CCC[C@H]1Oc1cc(Cl)c(C#N)cc1NS(=O)(=O)c1cc(C(=O)O)ccc1C1CC1` [Example 63, (R)-3-(N-(4-chloro-5-cyano-2-((2,2-dimethylcyclopentyl)oxy)phenyl)sulfamoyl)-4-cyclopropylbenzoic acid], the IC50 was below 1 nM.

As for `COC1CCC1Oc1cc(Cl)c(C#N)cc1NS(=O)(=O)c1cc(C(=O)O)ccc1C1CC1` (racemic) [Example 137, 3-(N-(4-chloro-5-cyano-2-(cis-2-methoxycyclobutoxy)phenyl)sulfamoyl)-4-cyclopropylbenzoic acid], the IC50 was below 1 nM.

As for `COC1CCCC1Oc1cc(Cl)c(C#N)cc1NS(=O)(=O)c1cc(C(=O)O)ccc1C1CC1` (racemic) [Example 102, 3-(N-(4-chloro-5-cyano-2-((cis-2-methoxycyclopentyl)oxy)phenyl)sulfa-moyl)-4-cyclopropylbenzoic acid], the IC50 was below 1 nM.

As to `CC1(C)CC(C)(C)C1Oc1cc(Cl)c(C#N)cc1NS(=O)(=O)c1cc(C(=O)O)ccc1C1CC1` [Example 101, 3-(N-(4-chloro-5-cyano-2-(2,2,4,4-tetramethylcyclo-butoxy)phenyl)sulfamoyl)-4-cyclopropylbenzoic acid], the IC50 is above 5 nM.

Regarding `N#Cc1cc(NS(=O)(=O)c2cc(C(=O)O)ccc2C2CC2)c(OC2CCC2C2CC2)cc1Cl` (single isomer, unassigned) [Example 130, 3-(N-(4-chloro-5-cyano-2-(2-cyclopropylcyclobutoxy)phenyl)sulfamoyl)-4-cyclopropylbenzoic acid], the IC50 lay in the range of 1 to 5 nM.

In the case of `COc1ccc(C(=O)O)cc1S(=O)(=O)Nc1cc(C(F)(F)F)ccc1OC1CCCCC1` [Example 3, 3-(N-(2-(cyclohexyloxy)^−5-(trifluoromethyl)phenyl)sulfamoyl)-4-methoxybenzoic acid], the IC50 is above 5 nM.

Turning to `COC1CCC1Oc1cc(Cl)c(C#N)cc1NS(=O)(=O)c1cc(C(=O)O)ccc1C1CC1` (single isomer, unassigned) [Example 144, 3-(N-(4-chloro-5-cyano-2-(cis-2-methoxycyclobutoxy)phenyl)sulfamoyl)-4-cyclopropylbenzoic acid], the IC50 is below 1 nM.

For `N#Cc1cc(NS(=O)(=O)c2cc(C(=O)O)ccc2C2CC2)c(OC2CCC2O)cc1Cl` (racemic) [Example 118, 3-(N-(4-chloro-5-cyano-2-(trans-2-hydroxycyclobutoxy)phenyl)sulfamoyl)-4-cyclopropylbenzoic acid], the IC50 was below 1 nM.

On to `CC1CCC1Oc1cc(Cl)c(C#N)cc1NS(=O)(=O)c1cc(C(=O)O)ccc1C1CC1` (single isomer, unassigned) [Example 123, 3-(N-(4-chloro-5-cyano-2-(2-methylcyclobutoxy)phenyl)sulfamoyl)-4-cyclopropylbenzoic acid], for which the IC50 is below 1 nM.

As for `N#Cc1cc(NS(=O)(=O)c2cc(C(=O)O)ccc2C2CC2)c(OC2CC3(CCC3)C2)cc1Cl` [Example 39, 3-(N-(4-chloro-5-cyano-2-(spiro[3.3]heptan-2-yloxy)phenyl)sulfamoyl)-4-cyclopropylbenzoic acid], the IC50 is 1 to 5 nM.

Take `N#Cc1cc(NS(=O)(=O)c2cc(C(=O)O)ccc2C2CC2)c(OCC2CCC2)cc1Cl` [Example 35, 3-(N-(4-chloro-5-cyano-2-(cyclobutylmethoxy)phenyl)sulfamoyl)-4-cyclopropylbenzoic acid]: the IC50 was below 1 nM.

With `CC1CCC1Oc1cc(Cl)c(C#N)cc1NS(=O)(=O)c1cc(C(=O)O)ccc1C1CC1` (single isomer, unassigned) [Example 120, 3-(N-(4-chloro-5-cyano-2-(2-methylcyclobutoxy)phenyl)sulfamoyl)-4-cyclopropylbenzoic acid], the IC50 is below 1 nM.

Take `COC1CCC(Oc2cc(Cl)c(C#N)cc2NS(=O)(=O)c2cc(C(=O)O)ccc2C2CC2)C1` (mixture of isomers) [Example 124, 3-(N-(4-chloro-5-cyano-2-((3-methoxycyclopentyl)oxy)phenyl)sulfa-moyl)-4-cyclopropylbenzoic acid]: the IC50 is below 1 nM.

Regarding `N#Cc1cc(NS(=O)(=O)c2cc(C(=O)O)ccc2C2CC2)c(OC2CCCC2(F)F)cc1Cl` (stereo not drawn) [Example 83, 3-(N-(4-chloro-5-cyano-2-((2,2-difluorocyclopentyl)oxy)phenyl)sulfamoyl)-4-cyclopropylbenzoic acid], the IC50 was below 1 nM.

Regarding `CC1CC(Oc2cc(Cl)c(C#N)cc2NS(=O)(=O)c2cc(C(=O)O)ccc2C2CC2)C1` (mixture of isomers) [Example 88, 3-(N-(4-chloro-5-cyano-2-(3-methylcyclobutoxy)phenyl)sulfamoyl)-4-cyclopropylbenzoic acid], the IC50 was below 1 nM.

For the molecule `C#CC1CCCC1Oc1cc(Cl)c(C#N)cc1NS(=O)(=O)c1cc(C(=O)O)ccc1C1CC1` (single isomer, unassigned) [Example 127, 3-(N-(4-chloro-5-cyano-2-((cis-2-ethynylcyclopentyl)oxy)phenyl)sulfamoyl)-4-cyclopropylbenzoic acid], the IC50 was above 5 nM.

As to `N#Cc1cc(NS(=O)(=O)c2cc(C(=O)O)ccc2C2CC2)c(OC2CCC3(CC3)C2)cc1Cl` (stereo not drawn) [Example 64, 3-(N-(4-chloro-5-cyano-2-(spiro[2.4]heptan-5-yloxy)phenyl)sulfamoyl)-4-cyclopropylbenzoic acid], the IC50 is below 1 nM.

As to `N#Cc1cc(NS(=O)(=O)c2cc(C(=O)O)ccc2C2CC2)c(O[C@H]2C[C@H](O)C2)cc1Cl` [Example 96, 3-(N-(4-chloro-5-cyano-2-(trans-3-hydroxycyclobutoxy)phenyl)sulfamoyl)-4-cyclopropylbenzoic acid], the IC50 is below 1 nM.

As to `CC1(C)CCC1Oc1cc(Cl)c(C#N)cc1NS(=O)(=O)c1cc(C(=O)O)ccc1C1CC1` (single isomer, unassigned) [Example 93, 3-(N-(4-chloro-5-cyano-2-(2,2-dimethylcyclobutoxy)phenyl)-sulfamoyl)-4-cyclopropylbenzoic acid], the IC50 lay within 1 to 5 nM.

Regarding `CC1(C)CC(Oc2cc(Cl)c(C#N)cc2NS(=O)(=O)c2cc(C(=O)O)ccc2C2CC2)C1` [Example 33, 3-(N-(4-chloro-5-cyano-2-(3,3-dimethylcyclobutoxy)phenyl)sulfamoyl)-4-cyclopropylbenzoic acid], the IC50 was below 1 nM.

(Values after patent US12692223B2, “Phenyl-sulfamoyl-benzoic acid derivatives as ERAP1-modulators” (GREY WOLF THERAPEUTICS LIMITED, priority 2021, dated 2026).)
